{
  "source": "patent US10272045B2",
  "about": "(priority 2015, dated 2019)",
  "key": {"[1]": {"details": "dog, in vivo"}, "[2]": {"details": "human, in vivo, cited from earlier work"}},
  "data": [
    {"molecule": "O=[As]O[As]=O", "note": "(stereo not drawn) [SV100]", "values": [
      {"measurement": "oral absorption", "setting": "[1]", "result": "very limited absorption"},
      {"measurement": "oral bioavailability (F^b %)", "setting": "[1]", "result": "< 10", "unit": "%"}
    ]},
    {"molecule": "arsenious acid [AsIII]", "values": [
      {"measurement": "time to peak plasma concentration (end of infusion)", "setting": "[2]; 0.15 mg/kg", "result": 2, "unit": "h"},
      {"measurement": "accumulation, Day 25 versus Day 1 of Cycle 1", "setting": "[2]", "result": "~2", "unit": "fold"},
      {"measurement": "mean elimination half-life", "setting": "[2]", "result": "10 to 14", "unit": "h"},
      {"measurement": "renal clearance", "setting": "[2]", "result": 9, "unit": "L/h"},
      {"measurement": "total clearance", "setting": "[2]", "result": 49, "unit": "L/h"},
      {"measurement": "volume of distribution (Vss)", "setting": "[2]", "result": 562, "unit": "L"}
    ]},
    {"molecule": "arsenic acid [Asv]", "values": [
      {"measurement": "level in plasma", "setting": "[2]", "result": "relatively low levels"}
    ]}
  ]
}
